Laboratory results from paper PMC6572376, “N1-Propargylguanosine Modified mRNA Cap Analogs: Synthesis, Reactivity, and Applications to the Study of Cap-Binding Proteins” (Molecules, 2019).

What was measured:
murine eIF4E = murine eIF4E (Mus musculus, UniProt P63073); assay: Pyrene fluorescence intensity competition binding assay for eIF4E
Source text: The prime role of the mRNA cap is to participate in initiation of translation through binding with eIF4E. Therefore, we investigated how the substitution at the N1 position influences the interaction between the cap analogs and eIF4E. To this end, we performed binding competition experiments with a Py-labeled m^7GTP analog as previously described. Thence, we determined IC50 values and calculated binding constants values (KD) for the cap analog-eIF4E complexes (Table 1, Figure 2). […] Additionally, the differences identified among studied compounds derived from triphosphate chain modifications were in agreement with previously published results.
A previously described pyrene fluorescence intensity binding method was used to determine the dissociation constants of the nonfluorescent ligands binding to the eIF4E protein in a competitive binding experiment. The experiments were performed in 96-well, black, non-binding assay plates with point fluorescence measurements (λexc = 345 nm; λem = 378 nm). Each well contained a buffer (50 mM Hepes/KOH pH = 7.2 containing 100 mM KCl and 0.5 mM EDTA), 10 nM of pyrene-labeled 7-methylguanosine pentaphosphate probe, ligand 1–5 or m^7Gp3G (half-log dilutions of Clig from 100 μM to 0.003 μM), and 75 nM of eIF4E protein. The reagents and added protein were pre-incubated for 15 min at 30 °C and stirred at 300 rpm. Measurements were performed in three different temperatures: At 20, 30, and 37 °C. A previously derived Equation (1) was used to calculate the inhibition (dissociation) constant KI of a competitive ligand according to the dependence of the recorded fluorescence intensity on the inhibitor concentration. (1) KI=IC50−[Pt]+[PL]50(KD/[L]50+1)/[L]50/KD+[P]0/KD+1 where IC50 is the inhibitor concentration required to replace 50% of the fluorescent probe from the protein binding site, [Pt] is the total protein concentration, [PL]50 is the protein–probe complex concentration at 50% inhibition, [L]50 is the free probe concentration at 50% inhibition, and [P]0 is the free protein concentration without inhibition.
In order to determine IC50 value, we used Origin® 2017 (OriginLab Corp., Northampton, MA, USA) software to fit the curve described by the derived Equation (2) to the measured fluorescence intensity values for various inhibitor concentrations. (2) F=F0Fmax−F0/1+10^(log(IC50)−log(Clig.))p where Clig. is the concentration of non-fluorescent ligand.
Figure 2 Dose–response curves for compounds 1–5 and m^7Gp3G plotted from a competition binding assay for meIF4E [16]. eIF4E (75 nM) and a pyrene-labeled fluorescent probe (10 nM) were incubated at 30 °C with the indicated concentrations of the investigated compounds (1–5 or m^7Gp3G as a reference).

[1] = molecular target: T1, human decapping scavenger enzyme (hDcpS) (Homo sapiens, UniProt Q96C86); assay: in vitro; conditions: pH 7.6
T1 sequence (Q96C86 1-337): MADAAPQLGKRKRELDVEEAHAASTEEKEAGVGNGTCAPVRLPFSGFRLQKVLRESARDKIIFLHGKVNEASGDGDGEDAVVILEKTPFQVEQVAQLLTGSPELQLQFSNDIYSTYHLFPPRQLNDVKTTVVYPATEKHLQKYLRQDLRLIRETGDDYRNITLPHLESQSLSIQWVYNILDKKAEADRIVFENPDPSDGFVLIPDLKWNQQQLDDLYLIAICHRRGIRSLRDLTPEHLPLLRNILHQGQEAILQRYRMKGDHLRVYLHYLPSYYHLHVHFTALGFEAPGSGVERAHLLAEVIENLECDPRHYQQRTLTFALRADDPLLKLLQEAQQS
Description: (§2) Susceptibility of the new cap analogs to hydrolysis by human decapping scavenger enzyme (hDcpS) was investigated to assess the influence of N1 substitution on cap analogs recognition by DcpS. Caps 1–5 or m^7Gp3G (30 µM each) were incubated with hDcpS (30 nM) at 30 °C. Then, reaction samples were thermally deactivated and analyzed by RP-HPLC.
(§3) Enzymatic reactions with human DcpS were carried out in 50 mM Tris/HCl, 200 mM KCl, 0.5 mM EDTA, pH = 7.6 buffer at 30 °C for 30 nM hDcpS and 30 µM of a cap analog studied. As a control, m^7Gp3G was used. Cap analogs concentration was determined spectrophotometrically (absorption coefficient used in calculations is equal to 22,600 mL/mmol/cm in 0.1 M phosphate buffer pH = 7.0). For 1 and m^7Gp3G, 3 independent experiments were performed. Aliquots were terminated by heat inactivation for 3 min at 95 °C. Samples were analyzed with RP-HPLC using method E.
(§4) Data are average of triplicate experiments ± SD.

[2] = molecular target: T1, human decapping scavenger enzyme (hDcpS); assay: Susceptibility to hDcpS hydrolysis monitored by RP-HPLC; conditions: 30 µM cap analog, 30 nM hDcpS, 30 °C
Description: as §2, §3, §4

murine eIF4E (meIF4E) = murine eIF4E (meIF4E) (Mus musculus, UniProt P63073); assay: Microscale thermophoresis direct binding to meIF4E; conditions: MST, 25 nM probe, 25 °C, 1:1 binding model, triplicate
Chain of murine eIF4E (meIF4E) (P63073 whole entry): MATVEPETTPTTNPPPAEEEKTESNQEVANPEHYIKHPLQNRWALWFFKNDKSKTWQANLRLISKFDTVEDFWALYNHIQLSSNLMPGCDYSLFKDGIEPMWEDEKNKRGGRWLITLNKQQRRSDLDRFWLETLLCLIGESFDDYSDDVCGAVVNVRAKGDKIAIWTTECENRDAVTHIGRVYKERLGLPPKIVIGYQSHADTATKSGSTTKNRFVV
Description: To this end, fluorescent probes (25 nM) were mixed with increasing concentrations of meIF4E and microscale thermophoresis was measured for each sample (Figure S5). Baseline corrected normalized fluorescences (ΔFn) determined from the MST traces were plotted as a function of protein concentration. KD values could then be calculated from the resulting binding curves (Figure 5). […] These findings align with those determined for the parent compounds 1, 2, and 3 (Table 1).
Probes 6, 11, and 12 were dissolved in MST buffer (50 mM HEPES/KOH, 100 mM KCl, 0.5 mM EDTA, pH = 7.2, 0.2% Tween 20) to obtain a 50 nM stock solution. Murine eIF4E (meIF4E) was dissolved in MST buffer in a 16 point, 1:1 dilution series in a 10.0 µM to 0.30 nM concentration range. Equal volumes (10 µL) of meIF4E and probe were combined to obtain the following assay concentrations: 25 nM probe and 5.0 µM to 0.15 nM meIF4E for the assay.
(§1) For both assays, samples were loaded into standard Monolith™ NT.115 Series Capillares (NanoTemper Technologies, Cambridge, MA, USA). MST measurements were performed on Monolith NT.115 instrument (NanoTemper Technologies, Cambridge, MA, USA) at 25 °C. Measurements parameters were set as follows: 40% LED Blue power, Medium MST power. Data were obtained for three independently pipetted measurements and analyzed in PALMIST v. 1.4.4 [36] using a 1:1 binding model to calculate KD, using the signal from an MST-on time of 20 s (for eIF4E assay: Cold region start, −3 s; hot region start, 0.5 s; for DcpS assay: Cold region start, −3 s; hot region start 19 s), confidence intervals were calculated with error surface projection (ESP) method. Plots presented were generated using GUSSI v. 1.4.2 [37].
Figure 5 Direct binding microscale thermophoresis (MST) experiments with eIF4E and DcpS. (a) MST binding curves for probes 6, 11, 12, and meIF4E. Probe 6, 11, or 12 (50 nM) was mixed with a half-log dilution series of an meIF4E solution (10 µM–0.30 nM). (b) MST binding curves for probes 11 and 12 and DcpS. […] Data were analyzed in Palmist v. […]

human DcpS (hDcpS) = molecular target: T2, human DcpS (hDcpS) (Homo sapiens, UniProt Q96C86); assay: Microscale thermophoresis direct binding to hDcpS; conditions: for Kd: MST, 25 nM probe, 25 °C, 1:1 binding model, triplicate
T2 construct: made in house
T2 sequence (Q96C86 1-337): T1 sequence (Q96C86 1-337)
Description: With these promising results in mind, we decided to use the same approach for studying DcpS enzyme. For this purpose, cleavage-resistant probes 11 and 12 were used. Both probes were high-affinity ligands for DcpS. […] This is in agreement with previously reported data on the influence of triphosphate chain modifications on cap-DcpS interaction.
Probes 11 and 12 were dissolved in MST buffer (50 mM HEPES/KOH, 100 mM KCl, 0.5 mM EDTA, pH = 7.2, 0.2% Tween 20) to obtain a 50 nM stock solution. In study of a probe 11, human DcpS (hDcpS) was dissolved in MST buffer in a 16 point 1:1 dilution series in a 2.0 µM to 0.061 nM concentration range. Equal volumes (10 µL) of hDcpS and the probe were mixed together to obtain the following assay concentrations: 25 nM probe and 1.0 µM to 0.030 nM hDcpS. In study of a probe 12, hDcpS was dissolved in MST buffer in a 16 point 2:1 dilution series in a 700 nM to 1.60 nM concentration range. Equal volumes (10 µL) of hDcpS and the probe were mixed together to obtain the following assay concentrations: 25 nM probe and 350 nM to 0.80 nM hDcpS.
as §1
Figure 5 Direct binding microscale thermophoresis (MST) experiments with eIF4E and DcpS. (a) MST binding curves for probes 6, 11, 12, and meIF4E. […] Data were analyzed in Palmist v. […]

[3] = 30 °C, 75 nM eIF4E, 10 nM pyrene-labeled probe, triplicate
[4] = 30 °C, calculated from IC50 values

Chain of murine eIF4E (P63073 whole entry): as above

Structure (SMILES) | IC50 (murine eIF4E; 20 °C) [µM] | Kd (murine eIF4E; 20 °C, calculated from IC50) [µM] | IC50 (murine eIF4E; [3]) [µM] | Kd (murine eIF4E; [4]) [µM] | IC50 (murine eIF4E; 37 °C) [µM] | Kd (murine eIF4E; 37 °C, calculated from IC50) [µM] | half-life at 30 µM [1] [min] | Susceptibility to hydrolysis by hDcpS ([2]; RP-HPLC) | Kd (murine eIF4E (meIF4E)) [µM] | Kd (human DcpS (hDcpS)) [µM] | Fold greater affinity for DcpS than probe 11 (human DcpS (hDcpS); MST KD ratio) [fold] | Half-life [2] [min]
C#CCn1c(N)nc2c(ncn2C2OC(COP(=O)(O)OP(=O)([O-])OP(=O)(O)OCC3OC(n4c[n+](C)c5c(O)nc(N)nc54)C(O)C3O)C(O)C2O)c1=O (stereo not drawn) [Compound 1, P1-(N1-Propargylguanosin-5′-yl) P3-(N7-methylguanosin-5′-yl) triphosphate] | 2.92 ± 0.19 | 0.268 ± 0.04 | 3.57 ± 0.25 | 0.305 ± 0.045 | 3.68 ± 0.7 | 0.371 ± 0.082 | 15.8 | efficiently cleaved by DcpS but more slowly than m^7Gp3G |  |  |  | 
C#CCn1c(N)nc2c(ncn2C2OC(COP(=O)([O-])OP(=O)(O)CP(=O)(O)OCC3OC(n4c[n+](C)c5c(O)nc(N)nc54)C(O)C3O)C(O)C2O)c1=O (stereo not drawn) [Compound 2, P1-(N7-Methylguanosin-5′-yl) P3-(N1-propargylguanosin-5′-yl) 1,2-methylenetriphosphate] | 6.57 ± 0.49 | 0.61 ± 0.094 | 6.37 ± 0.73 | 0.548 ± 0.095 | 8.2 ± 0.79 | 0.836 ± 0.121 |  |  |  |  |  | 
C#CCn1c(N)nc2c(ncn2C2OC(COP(=O)([O-])OP(=O)(O)NP(=O)(O)OCC3OC(n4c[n+](C)c5c(O)nc(N)nc54)C(O)C3O)C(O)C2O)c1=O (stereo not drawn) [Compound 3, P1-(N7-Methylguanosin-5′-yl) P3-(N1-propargylguanosin-5′-yl) 1,2-imidotriphosphate] | 3.06 ± 0.16 | 0.281 ± 0.041 | 3.48 ± 0.22 | 0.297 ± 0.043 | 3.75 ± 0.89 | 0.379 ± 0.1 |  |  |  |  |  | 
C#CCn1c(N)nc2c(ncn2C2OC(COP(=O)(O)CP(=O)(O)OP(=O)([O-])OCC3OC(n4c[n+](C)c5c(O)nc(N)nc54)C(O)C3O)C(O)C2O)c1=O (stereo not drawn) [Compound 4, P1-(N7-Methylguanosin-5′-yl) P3-(N1-propargylguanosin-5′-yl) 2,3-methylenetriphosphate] | 5.51 ± 0.33 | 0.511 ± 0.075 | 6.04 ± 0.46 | 0.52 ± 0.078 | 8.1 ± 0.61 | 0.826 ± 0.109 |  |  |  |  |  | 
C#CCn1c(N)nc2c(ncn2C2OC(COP(=O)(O)NP(=O)(O)OP(=O)([O-])OCC3OC(n4c[n+](C)c5c(O)nc(N)nc54)C(O)C3O)C(O)C2O)c1=O (stereo not drawn) [Compound 5, P1-(N7-Methylguanosin-5′-yl) P3-(N1-propargylguanosin-5′-yl) 2,3-imidotriphosphate] | 1.85 ± 0.15 | 0.168 ± 0.026 | 2.16 ± 0.2 | 0.182 ± 0.029 | 3.21 ± 0.33 | 0.324 ± 0.048 |  |  |  |  |  | 
C[n+]1cn([C@@H]2O[C@H](COP(=O)(O)OP(=O)([O-])OP(=O)(O)OC[C@H]3O[C@@H](n4cnc5c(=O)n(Cc6cn(CCCNC(=O)c7ccc8c(c7)C(=O)OC87c8ccc(O)cc8Oc8cc(O)ccc87)nn6)c(N)nc54)[C@H](O)[C@@H]3O)[C@@H](O)[C@H]2O)c2nc(N)nc(O)c21 [Compound 6, m^7Gp3G-N1-5FAM] |  |  |  |  |  |  |  |  | 0.05 |  |  | 
C[n+]1cn([C@@H]2O[C@H](COP(=O)(O)CP(=O)(O)OP(=O)([O-])OC[C@H]3O[C@@H](n4cnc5c(=O)n(Cc6cn(CCCNC(=O)c7ccc8c(c7)C(=O)OC87c8ccc(O)cc8Oc8cc(O)ccc87)nn6)c(N)nc54)[C@H](O)[C@@H]3O)[C@@H](O)[C@H]2O)c2nc(N)nc(O)c21 [Compound 11, m^7GpCH2ppG-N1-5FAM] |  |  |  |  |  |  |  |  | 0.201 | 0.038 |  | 
C[n+]1cn([C@@H]2O[C@H](COP(=O)(O)NP(=O)(O)OP(=O)([O-])OC[C@H]3O[C@@H](n4cnc5c(=O)n(Cc6cn(CCCNC(=O)c7ccc8c(c7)C(=O)OC87c8ccc(O)cc8Oc8cc(O)ccc87)nn6)c(N)nc54)[C@H](O)[C@@H]3O)[C@@H](O)[C@H]2O)c2nc(N)nc(O)c21 [Compound 12, m^7GpNHppG-N1-5FAM] |  |  |  |  |  |  |  |  | 0.053 | 0.014 | 2.5 | 
Cn1c[n+]([C@@H]2O[C@H](COP(=O)(O)OP(=O)(O)OP(=O)(O)OC[C@H]3O[C@@H](n4cnc5c(=O)[nH]c(N)nc54)[C@H](O)[C@@H]3O)[C@@H](O)[C@H]2O)c2nc(N)[nH]c(=O)c21 [m^7Gp3G, reference compound] | 3.04 ± 0.26 | 0.279 ± 0.045 | 3.46 ± 0.3 | 0.294 ± 0.046 | 3.31 ± 0.87 | 0.334 ± 0.096 |  |  |  |  |  | 5.703
